Numbering of substitutions follows the chain as printed.
What was measured:
[1] = target: T1, human chymase (Homo sapiens, UniProt P23946); test: Human chymase inhibitory activity (in vitro, angiotensin I substrate); format: biochemical; details: recombinant human chymase (COS7 cells); substrate angiotensin I; 37° C.; read-out: Human Chymase Inhibition (IC50:nM)
T1 construct: made in house; host or cells: COS7 cells (transient transfection)
T1 sequence (P23946 22-247): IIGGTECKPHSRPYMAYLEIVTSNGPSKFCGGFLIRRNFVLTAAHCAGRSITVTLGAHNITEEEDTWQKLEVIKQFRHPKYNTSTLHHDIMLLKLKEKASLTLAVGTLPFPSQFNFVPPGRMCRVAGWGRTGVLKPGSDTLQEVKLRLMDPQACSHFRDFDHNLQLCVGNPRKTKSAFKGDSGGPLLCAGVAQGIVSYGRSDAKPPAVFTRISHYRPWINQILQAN
Procedure: (§1) The inhibitory activities of the compounds on monkey chymase and human chymase were tested in vitro. The test compounds are as shown by Compound Nos. in Tables 13 and 14.
Preparation of Human Chymase
Human chymase was produced in mammalian cells using a recombinant DNA technique.
Construction of a human prochymase expression plasmid was performed in the following manner. Briefly, single stranded cDNA was synthesized from human heart mRNA (Clontech Laboratories, Inc.). Polymerase chain reaction amplification was carried out using the cDNA as a template and appropriate pairs of primers. The primer sequences were determined based on the human preprochymase. The amplified product was cloned into the plasmid pUC18, and then recloned into the plasmid pBluescript II KS(+) (Stratagene). Finally, the DNA fragment carrying the entire protein-coding sequences of the human preprochymase was inserted to a transient expression vector by the usual method to yield the human prochymase expression plasmid.
Transfection of COS7 cells with the human prochymase expression plasmid was carried out using the FuGene™ 6 transfection reagent (Boehringer Mannheim). About 7 hours after exposure to DNA, the culture medium was changed to a serum-free one. The culture supernatant was collected after 2 days culture.
Human prochymase was purified from the culture supernatant using a heparin actigel column as described above in the preparation of monkey chymase.
In order to produce active chymase, the human prochymase was incubated with dipeptidylpeptidase I (Sigma). The resultant active human chymase was purified using a heparin actigel column as described above. The active human chymase was eluted with 0.01 mol/1000 ml sodium phosphate buffer pH 7.4 containing 2 mol/1000 ml NaCl.
(§2) Measurement of Chymase Inhibitory Activity (In Vitro Assay)
(§3) The chymase inhibitory activities of compounds I-A of this invention were measured according to the following method. Briefly, the purified monkey or human chymase was diluted to an appropriate concentration with 0.01 mol/1000 ml sodium phosphate buffer, pH 7.4, containing 2 mol/1000 ml KCl and 0.1% Nonidet P-40 and used as enzyme solution. Angiotensin I (Peptide Institute Inc.) was diluted with water to 5 mg/ml and used as substrate solution. Test compounds were serially diluted with 10% DMSO. […] After pre-incubation of the mixture at 37° C., 20 μl of the substrate solution was added to the enzyme-test compound mixture and the new mixture was incubated at 37° C. Fifty μl of 30% trichloroacetic acid solution was finally added to stop the enzymatic reaction.
The amount of L-His-L-Leu was measured as angiotensin II produced by the enzymatic reaction. Briefly, 10 μl of the reaction mixture and 10 μl of 1% orthophthalaldehyde solution dissolved in methanol were mixed with 100 μl of 2 mol/1000 ml NaOH and kept at room temperature. The reaction was then stopped by adding 10 μl of 6 mol/1000 ml HCl. Finally, the fluorescence induced by the reaction was measured using in a photometer with an excitation wavelength of 355 nm and an emission wavelength of 460 nm. Chymase inhibitory activities of test compounds were expressed as 50% inhibitory concentration (IC50).

[2] = target: T2, monkey chymase (Macaca fascicularis, UniProt P56435); test: Monkey chymase inhibitory activity (in vitro, angiotensin I substrate); format: biochemical; details: chymase purified from monkey cheek pouch and stomach; substrate angiotensin I; 37° C.; read-out: Monkey Chymase Inhibition (IC50:nM)
T2 construct: chymase was extracted from homogenized monkey cheek pouch and stomach; from tissue; host or cells: monkey cheek pouch and stomach
T2 sequence (P56435 22-247): T1 sequence (P23946 22-247) with F29S, A44V, E63K, D159Y, S201L, Q221K
Procedure: as §1
Preparation of Monkey Chymase
Chymase was purified from monkey cheek pouch and stomach in the following manner.
Briefly, chymase was extracted from homogenized monkey cheek pouch and stomach with 0.01 mol/1000 ml sodium phosphate buffer, pH 7.4, containing 2 mol/1000 ml KCl and 0.1% Nonidet P-40 (Amresco Inc.). The solution containing chymase was applied to a heparin actigel column, and the chymase-rich fractions were collected.
as §2
as §3, with “Briefly,” for “The chymase inhibitory activities of compounds I-A of this invention were measured according to the following method. Briefly,”
The amount of L-His-L-Leu was measured as angiotensin II produced by the enzymatic reaction. Briefly, 10 μl of the reaction mixture and 10 μl of 1% orthophthalaldehyde solution dissolved in methanol were mixed with 100 μl of 2 mol/1000 ml NaOH and kept at room temperature. The reaction was then stopped by adding 10 μl of 6 mol/1000 ml HCl.

Compound | IC50 [1] [nM] | IC50 [2] [nM]
CC(C)[C@H](NC(=O)c1ccoc1)C(=O)N1CCC[C@H]1C(=O)NC(Cc1ccc2ccccc2c1)C(=O)C(F)(F)F (stereo partly shown) [I-A-63] | 92 | 150
CC(C)[C@H](NC(=O)c1ccc2nonc2c1)C(=O)N1CCC[C@H]1C(=O)NC(Cc1cc2ccccc2s1)C(=O)C(F)(F)F (stereo partly shown) [I-A-95] | 95 | 47
CC(C)[C@H](NC(=O)CN1CCN(CC(=O)OC(C)(C)C)C1=O)C(=O)N1CCC[C@H]1C(=O)NC(Cc1cc2ccccc2s1)C(=O)C(F)(F)F (stereo partly shown) [I-A-86] |  | 210
Cc1snnc1C(=O)N[C@H](C(=O)N1CCC[C@H]1C(=O)NC(Cc1cc2ccccc2s1)C(=O)C(F)(F)F)C(C)C (stereo partly shown) [I-A-99] |  | 83
CC(C)[C@H](NC(=O)c1cccs1)C(=O)N1CCC[C@H]1C(=O)NC(Cc1csc2ccccc12)C(=O)C(F)(F)F (stereo partly shown) [I-A-70] |  | 140
CC(C)[C@H](NC(=O)CN1CCN(CC(=O)OC(C)(C)C)C1=O)C(=O)N1CCC[C@H]1C(=O)NC(Cc1ccc2ccccc2c1)C(=O)C(F)(F)F (stereo partly shown) [I-A-84] |  | 190
Cc1noc(C)c1C(=O)N[C@H](C(=O)N1CCC[C@H]1C(=O)NC(Cc1cccc(Cl)c1)C(=O)C(F)(F)F)C(C)C (stereo partly shown) [I-A-38] |  | 110
CC(C)[C@H](NC(=O)c1ccc2c(c1)OCO2)C(=O)N1CCC[C@H]1C(=O)NC(Cc1csc2ccccc12)C(=O)C(F)(F)F (stereo partly shown) [I-A-57] |  | 100
CC(C)(C)OC(=O)Cn1c(=O)ccn(CC(=O)N[C@@H](CC2CCCCC2)C(=O)N2CCC[C@H]2C(=O)NC(Cc2ccccc2)C(=O)C(F)(F)F)c1=O (stereo partly shown) [I-A-92] |  | 860
COc1ccc(CC(NC(=O)[C@@H]2CCCN2C(=O)[C@@H](NC(=O)c2c(C)noc2C)C(C)C)C(=O)C(F)(F)F)cc1 (stereo partly shown) [I-A-37] |  | 95
Cc1noc(C)c1C(=O)N[C@H](C(=O)N1CCC[C@H]1C(=O)NC(Cc1ccc(Cl)cc1)C(=O)C(F)(F)F)C(C)C (stereo partly shown) [I-A-43] |  | 140
Cc1cccc(CC(NC(=O)[C@@H]2CCCN2C(=O)[C@@H](NC(=O)c2c(C)noc2C)C(C)C)C(=O)C(F)(F)F)c1 (stereo partly shown) [I-A-40] |  | 120
CC[C@H](NC(=O)c1snnc1C)C(=O)N1CCC[C@H]1C(=O)NC(Cc1csc2ccccc12)C(=O)C(F)(F)F (stereo partly shown) [I-A-21] |  | 19
Cc1noc(C)c1C(=O)N[C@H](C(=O)N1CCC[C@H]1C(=O)NC(Cc1cccc2ccccc12)C(=O)C(F)(F)F)C(C)C (stereo partly shown) [I-A-15] |  | 82
CC(C)[C@H](NC(=O)c1ccco1)C(=O)N1CCC[C@H]1C(=O)NC(Cc1csc2ccccc12)C(=O)C(F)(F)F (stereo partly shown) [I-A-74] |  | 350
Cc1noc(C)c1C(=O)N[C@H](C(=O)N1CCC[C@H]1C(=O)NC(Cc1ccc(O)cc1)C(=O)C(F)(F)F)C(C)C (stereo partly shown) [I-A-28] |  | 54
Cc1noc(C)c1C(=O)N[C@H](C(=O)N1CCC[C@H]1C(=O)NC(Cc1ccccc1Cl)C(=O)C(F)(F)F)C(C)C (stereo partly shown) [I-A-39] |  | 120
CC(C)[C@H](NC(=O)CN1CCN(CC(=O)O)C1=O)C(=O)N1CCC[C@H]1C(=O)NC(Cc1ccc2ccccc2c1)C(=O)C(F)(F)F (stereo partly shown) [I-A-83] |  | 61
CC(C)[C@H](NC(=O)c1ccsc1)C(=O)N1CCC[C@H]1C(=O)NC(Cc1csc2ccccc12)C(=O)C(F)(F)F (stereo partly shown) [I-A-72] |  | 160

Compound | IC50 [1] [nM] | IC50 [2] [nM]
Cc1nnsc1C(=O)N[C@H](C(=O)N1CCC[C@H]1C(=O)NC(Cc1ccc2c(c1)CCC2)C(=O)C(F)(F)F)C(C)C (stereo partly shown) [I-A-24] |  | 150
Cc1nc(C)c(C(=O)N[C@H](C(=O)N2CCC[C@H]2C(=O)NC(Cc2csc3ccccc23)C(=O)C(F)(F)F)C(C)C)o1 (stereo partly shown) [I-A-69] |  | 98
Cc1noc(C)c1C(=O)N[C@H](C(=O)N1CCC[C@H]1C(=O)NC(Cc1cc2ccccc2s1)C(=O)C(F)(F)F)C(C)C (stereo partly shown) [I-A-98] |  | 63
Cc1noc(C)c1C(=O)N[C@H](C(=O)N1CCC[C@H]1C(=O)NC(Cc1ccc(Cl)cc1)C(=O)C(F)(F)F)C(C)C (stereo partly shown) [I-A-29] |  | 57
CC(C)[C@H](NC(=O)c1cccnc1Oc1ccccc1)C(=O)N1CCC[C@H]1C(=O)NC(Cc1csc2ccccc12)C(=O)C(F)(F)F (stereo partly shown) [I-A-73] |  | 300
CC[C@H](NC(=O)c1snnc1C)C(=O)N1CCC[C@H]1C(=O)NC(Cc1ccc2ccccc2c1)C(=O)C(F)(F)F (stereo partly shown) [I-A-23] |  | 50
Cc1onc(-c2ccccc2)c1C(=O)N[C@H](C(=O)N1CCC[C@H]1C(=O)NC(Cc1csc2ccccc12)C(=O)C(F)(F)F)C(C)C (stereo partly shown) [I-A-7] |  | 34
CC(C)[C@H](NC(=O)c1snnc1-c1ccccc1)C(=O)N1CCC[C@H]1C(=O)NC(Cc1csc2ccccc12)C(=O)C(F)(F)F (stereo partly shown) [I-A-68] |  | 27
CC(C)[C@H](NC(=O)c1ccccn1)C(=O)N1CCC[C@H]1C(=O)NC(Cc1csc2ccccc12)C(=O)C(F)(F)F (stereo partly shown) [I-A-67] |  | 94
Cc1cn(CC(=O)N[C@H](C(=O)N2CCC[C@H]2C(=O)NC(Cc2cc3ccccc3s2)C(=O)C(F)(F)F)C(C)C)c(=O)n(Cc2ccccc2)c1=O (stereo partly shown) [I-A-93] |  | 200
Cc1noc(C)c1C(=O)N[C@@H](Cc1ccccc1)C(=O)N1CCC[C@H]1C(=O)NC(Cc1csc2ccccc12)C(=O)C(F)(F)F (stereo partly shown) [I-A-8] |  | 48
Cc1nc2c(C(=O)N[C@H](C(=O)N3CCC[C@H]3C(=O)NC(Cc3csc4ccccc34)C(=O)C(F)(F)F)C(C)C)cccc2o1 (stereo partly shown) [I-A-60] |  | 430
Cc1noc(C)c1C(=O)N[C@H](C(=O)N1CCC[C@H]1C(=O)NC(Cc1ccc2c(c1)CCC2)C(=O)C(F)(F)F)C(C)C (stereo partly shown) [I-A-18] |  | 220
CC(C)[C@H](NC(=O)Cn1ccc(=O)n(CC(=O)OC(C)(C)C)c1=O)C(=O)N1CCC[C@H]1C(=O)NC(Cc1ccc(Cl)cc1)C(=O)C(F)(F)F (stereo partly shown) [I-A-90] |  | 280
Cc1noc(C)c1C(=O)N[C@H](C(=O)N1CCC[C@H]1C(=O)NC(Cc1coc2ccccc12)C(=O)C(F)(F)F)C(C)C (stereo partly shown) [I-A-9] |  | 61
Cc1noc(C)c1C(=O)N[C@H](C(=O)N1CCC[C@H]1C(=O)NC(CC1CCCCC1)C(=O)C(F)(F)F)C(C)C (stereo partly shown) [I-A-16] |  | 110
Cc1ccc(CC(NC(=O)[C@@H]2CCCN2C(=O)[C@@H](NC(=O)c2c(C)noc2C)C(C)C)C(=O)C(F)(F)F)cc1 (stereo partly shown) [I-A-35] |  | 80
O=C(O)Cn1c(=O)ccn(CC(=O)N[C@@H](CC2CCCCC2)C(=O)N2CCC[C@H]2C(=O)NC(Cc2ccccc2)C(=O)C(F)(F)F)c1=O (stereo partly shown) [I-A-91] |  | 150
Cc1noc(C)c1C(=O)N[C@@H](Cc1ccccc1)C(=O)N1CCC[C@H]1C(=O)NC(Cc1ccccc1)C(=O)C(F)(F)F (stereo partly shown) [I-A-14] |  | 59

Source: patent US6852744B2, “Pyrrolidine derivatives and their use as chymase inhibitor” (Dainippon Pharmaceutical Co., Ltd., priority 2000, dated 2005)
